#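 Each compound was tested at five concentrations against cells in 96-well plates for 48 hours. TGI is the concentration that stops growth completely.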
# Tests used:
# Assay in all cases: inhibition of tumour cell growth, NCI panel, 48 h
# A498 renal = test system: A498 renal
# A549 NSCLC = test system: A549 NSCLC
# BT-549 breast = test system: BT-549 breast
# DU-145 prostate = test system: DU-145 prostate
# HCC-2998 colon = test system: HCC-2998 colon
# HL-60(TB) leukemia = test system: HL-60(TB) leukemia
# HOP-62 NSCLC = test system: HOP-62 NSCLC
# HOP-92 NSCLC = test system: HOP-92 NSCLC
# HS 578T breast = test system: HS 578T breast
# MCF7 breast = test system: MCF7 breast
# MDA-N = test system: MDA-N
# NCI-H23 lung = test system: NCI-H23 lung
# OVCAR-3 ovarian = test system: OVCAR-3 ovarian
# OVCAR-8 ovarian = test system: OVCAR-8 ovarian
# RPMI-8226 leukemia = test system: RPMI-8226 leukemia
# SK-OV-3 ovarian = test system: SK-OV-3 ovarian
# SNB-19 CNS = test system: SNB-19 CNS
# U251 CNS = test system: U251 CNS
# UACC-257 melanoma = test system: UACC-257 melanoma
Compound,TGI (A498 renal) [µM],TGI (A549 NSCLC) [µM],TGI (BT-549 breast) [µM],TGI (DU-145 prostate) [µM],TGI (HCC-2998 colon) [µM],TGI (HL-60(TB) leukemia) [µM],TGI (HOP-62 NSCLC) [µM],TGI (HOP-92 NSCLC) [µM],TGI (HS 578T breast) [µM],TGI (MCF7 breast) [µM],TGI (MDA-N) [µM],TGI (NCI-H23 lung) [µM],TGI (OVCAR-3 ovarian) [µM],TGI (OVCAR-8 ovarian) [µM],TGI (RPMI-8226 leukemia) [µM],TGI (SK-OV-3 ovarian) [µM],TGI (SNB-19 CNS) [µM],TGI (U251 CNS) [µM],TGI (UACC-257 melanoma) [µM]
c1csc(-c2ccc(-c3cccs3)c3nsnc23)c1,> 100,> 100,> 100,> 70.6,> 100,27.1,> 95.7,> 100,47.2,> 100,> 73.4,> 68.4,> 57.4,> 93.2,> 82.4,> 96.4,> 100,> 87.5,> 100
COC(C)(C)[C@@H](O)[C@H]1C[C@H](C)[C@@]2(CC[C@]3(C)[C@@H]2CC[C@@H]2[C@@]4(C)CC[C@@H](OC(C)=O)C(C)(C)[C@@H]4C[C@@H](OC4OC(COC(C)=O)C(O)C(O)C4O)[C@]23C)O1 (stereo partly drawn),14.4,15.3,15.2,15.7,2.92,4.63,25,17.6,23.7,8.92,17.9,25.8,15.3,18.7,5.7,15.1,21.3,18.5,20.9
